{"source": "paper PMC6013495", "about": "“Development of a Novel Backbone Cyclic Peptide Inhibitor of the Innate Immune TLR/IL1R Signaling Protein MyD88” (Scientific Reports, 2018)", "key": {"[1]": {"target": "T1, SUMO protein fused to eGFP (Homo sapiens, UniProt P55854)", "T1 construct": "His tag; made in house; host or cells: E. coli BL21 C43 (DE3)", "assay": "Binding of Biotin-MyDI to control SUMO-eGFP fusion protein", "conditions": "SUMO-eGFP coated, Streptavidin-HRP read-out"}, "[2]": {"target": "T2, human MyD88 TIR domain (aa 150–296) (Homo sapiens, UniProt Q99836)", "T2 construct": "human MyD88 TIR domain residues 150–296; His tag; made in house; host or cells: E. coli BL21 C43 (DE3)", "T2 sequence (Q99836 150-296)": "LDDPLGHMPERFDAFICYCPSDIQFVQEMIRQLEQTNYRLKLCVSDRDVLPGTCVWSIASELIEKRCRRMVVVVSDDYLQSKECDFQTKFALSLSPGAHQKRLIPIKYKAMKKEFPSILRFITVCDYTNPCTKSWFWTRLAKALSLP", "assay": "Competitive binding assay, Biotin-MyDI on recombinant SUMO-MyD88-TIR", "conditions": "SUMO-MyD88-TIR 8 µg/ml coated, Streptavidin-HRP read-out", "from_the_text": "A synthetic DNA fragment corresponding to the cDNA encoding human MyD88 TIR domain residues 150–296 with BamH/Xhol restriction enzymes was from IDT (Integrated DNA technologies, IA, USA). DNA was amplified with the Ready-mix PCR kit (Sigma), and ligated (New England BioLabs, MA, USA) with the restriction enzymes BamH and Xhol (TaKaRa, Kusatsu, Shiga Prefecture, Japan) to pETM-11 SUMO3GFP fusion vector for protein expression in E. coli, a gift from the EMBL protein expression and purification core facility. Plasmids were gel purified with PureLink Quick Gel Extraction kit (Invitrogen, San Diego, CA, USA), sequence verified, and transformed to (C2987) NEB Dh5a competent cells (New England BioLabs) and amplified with a QIAGEN plasmid midiprep kit. The recombinant fusion protein- SUMO-MyD88-TIR was expressed in E. coli BL21 C43 (DE3) cells (Lucigen, WI, USA). E. coli BL21 C43(DE3) were grown in 2xYT medium containing 1% glucose, […] MgSO4 and 20xNPS (100 mM PO4, 25mMSO4, 50 mM NH4. 100 mM Na, 50 mM K) up to mid-log phase (O.D-0.6) in 37 °C and then were grown o.n at 25 °C with 0.4 mM IPTG (Sigma). […]\nThe recombinant SUMO-MyD88-TIR protein (8 µg/ml) was attached to polystyrene microtiter 96 well plates (Nunc, Roskilde, Denmark) at 4 °C o.n. […] After 5 min, 2 N sulfuric acid stop solution was added and absorbance was read at 450 nm in an Infinite 200 Pro plate reader (Tecan). […]"}}, "data": [{"substance": "Biotin-MyDI: Biotinylated linear BB loop peptide RDVLPGT, from Bio Basic Inc.", "values": [{"measurement": "binding to control fusion protein", "setting": "[1]", "value": "did not bind at any concentration"}, {"measurement": "binding to the MyD88 TIR domain", "setting": "[2]", "value": "bound the TIR domain in a concentration dependent manner"}]}]}
